Earlier results in patent US11123365B2, “Compositions comprising palmitoylethanolamide and hydrogen water, and methods thereof” (Perricone Hydrogen Water Company, LLC, priority 2019, dated 2021).

- solubility in water: less than 20 mM
SMILES: CCCCCCCCCCCCCCCC(=O)NCCO [palmitoylethanolamide]
